In publication PMC2932756 (Chemico-biological interactions, 2010):

Key:
tyrosinase = test: Tyrosinase mediated GSH depletion assay; assay type: biochemical, Mushroom; details: 100 μM phenolic agent, 200 μM GSH, tyrosinase/O2, 37 °C, 2 h
SK-MEL-28 melanoma cells = test: MTT cell viability assay, IC50; assay type: cell-based, human; details: MTT assay, 48 h incubation
[1] = system: CYP2E1 induced rat liver microsomes; details: 100 μM, pH 7.4
isolated rat hepatocytes = details: trypan blue exclusion, 2 h incubation; cited from earlier work

Compound | Tyrosinase GSH depletion (2 h) (tyrosinase) [%] | LD50 (day 2) SK-MEL-28 (SK-MEL-28 melanoma cells) [mM] | Microsomes GSH depletion (2 h) [1] [%] | LD50 (2 h) rat hepatocytes (isolated rat hepatocytes) [mM]
O=C(/C=C/c1ccc(O)c(O)c1)O[C@@H]1C[C@](O)(C(=O)O)C[C@@H](O)[C@H]1O [CGA, chlorogenic acid] | 200±5 | >5 | – | –
O=C(O)/C=C/c1ccccc1 [CinA, cinnamic acid] | 40±7 | – | 110±7 | –
O=C(O)CCc1ccc(O)c(O)c1 [DHCA, dihydrocaffeic acid] | 200±4 | 2.2 | – | 6
O=C(O)CCc1ccccc1 [DHCinA, Dihydrocinnamic acid] | 32±3 | 5 | – | –
ferulic acid [FA] | 46±2 | 2 | – | 25
